Values quoted from earlier work in patent US20140348931A1, “SUSTAINED-RELEASE TOPIRAMATE FORMULATIONS” (CADILA HEALTHCARE LIMITED, priority 2013, published 2014).

Details: in vivo

half-life: 21 h
Structure (SMILES): CC1(C)OC2[C@@H](CO[C@@]3(COS(N)(=O)=O)OC(C)(C)O[C@@H]23)O1 (stereo partly drawn) [topiramate, 2, 3: 4, 5 Di-O-isopropylidene-β-D-fructopyranose sulfamate]
